Each structure is given as a SMILES string.

From patent US10227349B2, “Pyrazolo[1,5-a]pyrimidine compound” (Eisai R&D Management Co., Ltd., priority 2016, dated 2019) come the findings set out here.

For test [1], the system named is OXA-induced enteritis in BALB/c male mice. Briefly: Model mouse for enteritis (OXA-induced, bowel length). The test is classed as in vivo. Conditions: po, 48 h, 0.1 mg/mL solution 10 mL/kg orally twice (1 hour before and day after OXA induction), length of colon and rectum two days after induction, read-out: Inhibitory activity on bowel shortening (%). On the procedure:
Generally, the bowel length is known to be shorter during enteritis (Maxwell, J. R. et al. Curr. Protoc. Pharmacol. Chapter 5: Unit 5.58, 2009). The bowel length in an enteritis model was measured to evaluate the effect of the test compound.
The test compound was added to a 0.5% carboxymethyl cellulose solution so as to have a final concentration of 0.1 mg/mL, thereby preparing an administration solution containing the test compound. Hapten used was 4-ethoxymethylene-2-phenyloxazol-5-one (OXA, SIGMA-ALDRICH).
One hundred (100) μL of a solution of OXA diluted to 0.3% with ethanol was applied to the shaved abdominal region of BALB/c male mice (Charles River), 6-10 weeks of age, to create the sensitization. Five days after the sensitization, OXA was intrarectally administered to induce an enteritis reaction. More specifically, a syringe equipped with a sonde for oral administration was inserted into the anus of the mouse anesthetized by the inhalation of isoflurane at a concentration of 4-5% and 50 μL of the OXA solution adjusted to 1% with a solvent of 50% ethanol/50% distilled water was administered into the rectum.
One hour before and on the day following the induction of enteritis, the administration solution containing the test compound (10 mL/kg) was orally administered twice in total to the mice. Two days after the induction of enteritis, the mice were euthanized by cervical dislocation and subsequently the cecum to the anus was collected to measure the combined length of the colon and the rectum using a ruler, thereby evaluating the action of the test compound.
Note that Reference Example 1 in Table 6 is Compound (XIX).

Test [2] deals with T1, PAR2 (Homo sapiens, UniProt P55085).
T1 construct: Human embryonic kidney cell line HEK293 cells cultured using DMEM culture medium; endogenous in cells; host or cells: HEK293
T1 sequence (P55085 26-397): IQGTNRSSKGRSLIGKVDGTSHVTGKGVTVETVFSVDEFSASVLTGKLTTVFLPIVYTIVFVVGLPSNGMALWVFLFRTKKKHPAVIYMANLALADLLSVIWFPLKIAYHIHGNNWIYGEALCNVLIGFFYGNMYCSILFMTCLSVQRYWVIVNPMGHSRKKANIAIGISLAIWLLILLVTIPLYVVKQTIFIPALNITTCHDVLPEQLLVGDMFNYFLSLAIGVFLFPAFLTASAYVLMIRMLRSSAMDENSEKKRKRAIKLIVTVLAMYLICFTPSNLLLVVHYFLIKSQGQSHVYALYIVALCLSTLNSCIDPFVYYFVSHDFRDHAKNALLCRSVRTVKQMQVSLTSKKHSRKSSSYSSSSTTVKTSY
Briefly: Intracellular calcium concentration measurement (trypsin-induced calcium elevation, FDSS6000). The test is classed as cell-based. Particulars: HEK293 cells, trypsin 5 U/mL as agonist, test compound added 30 min before measurement; read-out: Inhibitory activity on intracellular calcium elevation (IC50 (nM)). The text has this: In the present specification, examples of the measurement method for the PAR2 inhibitory activity include measurement method for a concentration elevation of intracellular calcium; measurement method for a production increase of intracellular inositol trisphosphate; measurement method for an increase in intracellular protein phosphorylation by protein kinase C and MAP kinase; and measurement method for a production amount or a release amount of inflammation-related physiologically active substances such as cytokine, chemokine, prostaglandin and nitric monoxide. Examples of the measurement method for an elevation of intracellular calcium concentration include a method wherein a calcium-binding fluorescent probe is allowed to be incorporated in advance into a cultured cell line or an animal-derived isolated cell having PAR2, or a cell in which PAR2 is artificially expressed, a protease having the PAR2 activity function such as trypsin or a PAR2 agonist (synthetic peptides such as SLIGKV-NH2 (SEQ ID NO: 1) and SLIGRL-NH2 (SEQ ID NO: 2) is added to activate PAR2 whereby fluctuating intracellular calcium concentrations are detected as changes in the fluorescent signal. Alternatively, it is also possible to measure an intracellular calcium concentration by determining the quantity of a fluorescence intensity produced in proportion to the calcium concentration using a calcium-binding luminescent protein overexpressing cell line such as Aequorin. Specifically, examples include the methods described in Test Examples of the present specification.
Human embryonic kidney cell line HEK293 cells cultured using DMEM culture medium (Invitrogen) with 3% fetal bovine serum (3% FBS)-added was prepared to have a concentration of 2×10^5 cells/mL, and plated in a type I collagen-coated 384-well black plate (clear bottom) (Greiner) so as to be 25 μL/well and cultured in a CO2 incubator overnight. FLIPR Calcium Assay Kit (Molecular Devices) prepared with Hanks-20 mM Hepes buffer (pH 7.4) was added to the cells so as to be 25 μL/well and cultured in the CO2 incubator for 1 hour. Trypsin (SIGMA-ALDRICH, catalog number: T8816, Enzyme Commission Number 3.4.21.4) prepared so as to be 5 U/mL as final concentration (BAEE unit) with Hanks-20 mM Hepes buffer (pH 7.4) was added to a 384-well deep well polypropylene plate (Greiner) to be an agonist reagent plate. Thirty minutes before the measurement using FDSS6000 (Hamamatsu Photonics K.K.), a test compound prepared with Hanks-20 mM Hepes buffer (pH 7.4) was added to the cell so as to be 8 μL/well. The cell plate to which the test compound was added and the reagent plate were set on FDSS6000, 22 μL/well of the agonist solution was added from the reagent plate, and the change in intracellular calcium concentration was measured with a CCD camera. The measurement was carried out at 37° C. for 120 seconds and the addition of reagent from the reagent plate to the cell plate was carried out using a built-in 384-well automatic dispenser of FDSS6000.
Note that Reference Example 1 in Table 3 is the compound represented by formula (XIX) synthesized in the above Reference Example 1 (hereinafter, also referred to as Compound (XIX)). Additionally, the “Comparative Compound” in Table 3 is the compound described in Patent Literature 4 represented by the following formula (XX) (I-343; hereinafter, also referred to as Compound (XX)).
A general note: Calcium assays in cells follow changes in intracellular calcium, usually with a dye or a luminescent sensor.

Test [3] addresses T2, PAR2 (Mus musculus, UniProt P55086).
T2 construct: orally administered to C57BL/6J male mice (Charles River), 6-10 weeks of age; tissue Charles River; host or cells: Living C57BL/6J male mice (in vivo; saliva secretion)
T2 sequence (P55086 26-399): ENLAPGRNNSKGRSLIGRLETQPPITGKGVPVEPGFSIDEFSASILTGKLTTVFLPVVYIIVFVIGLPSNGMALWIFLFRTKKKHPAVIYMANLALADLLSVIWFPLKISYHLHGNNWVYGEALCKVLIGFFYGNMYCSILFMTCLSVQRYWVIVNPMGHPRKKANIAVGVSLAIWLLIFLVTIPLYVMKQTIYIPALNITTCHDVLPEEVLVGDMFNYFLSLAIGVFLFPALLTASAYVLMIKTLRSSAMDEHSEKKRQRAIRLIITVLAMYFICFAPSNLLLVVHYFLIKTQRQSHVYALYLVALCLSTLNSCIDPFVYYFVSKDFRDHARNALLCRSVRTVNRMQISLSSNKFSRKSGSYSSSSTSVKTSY
Briefly: Measurement of PAR2 agonist (SLIGRL-NH2)-induced salivation in mouse. The format is in vivo. Particulars: C57BL/6J male mice, 0.3 mg/mL solution 10 mL/kg orally, 60 min before SLIGRL-NH2 i.p., saliva collected 10 min. As for the experimental part:
The test compound was added to a 0.5% carboxymethyl cellulose solution to which 2% DMSO was added, so as to have the final concentration of 0.3 mg/mL, thereby preparing an administration solution containing the test compound. The administration solution containing the test compound (10 mL/kg) was orally administered to C57BL/6J male mice (Charles River), 6-10 weeks of age, using an oral sonde and a syringe. Forty-five minutes after the administration of the test compound, 10 mL/kg of a 20% (w/v) urethane solution was intraperitoneal administered to the mice which were then anesthetized. Sixty minutes after the administration of the test compound, 10 mL/kg of a 0.1 mg/mL SLIGRL-NH2 (SEQ ID NO: 2) solution was intraperitoneally administered as the PAR2 agonist and a cotton ball was immediately placed in the oral cavity of the mouse to collect the saliva. Ten minutes after the administration of the PAR2 agonist, the cotton ball was removed and weighed to measure the amount of saliva secreted.
Note that Reference Example 1 in Table 4 is Compound (XIX). Additionally, Comparative Compound in Table 4 is Compound (XX).

`Cc1cccc(C)c1N(C)c1cc(-c2cc(F)c(F)c(F)c2)nc2cc(C(=O)N3CC[C@@H](CC(=O)O)[C@@H](F)C3)nn12` (relative stereo) [Example 1, 2-((3R*,4S*)-1-(7-((2,6-dimethylphenyl)(methyl)amino)-5-(3,4,5-trifluorophenyl)pyrazolo[1,5-a]pyrimidine-2-carbonyl)-3-fluoropiperidin-4-yl)acetic acid]: the inhibition in vivo at 100 µg/mL, 1 mg/kg in test [1] was 60.4%. Further, the IC50 (as a rule, the concentration at which inhibition is half-maximal) on PAR2 [2] was found to be 2.57 nM. Besides, the “Inhibitory activity on the PAR2-dependent saliva secretion (%)” value (from here on “Inhibitory activity … (%)”) at PAR2 [3] is listed as 91.5%.
As to `CO[C@H]1CN(C(=O)c2cc3nc(-c4cc(F)c(F)c(F)c4)cc(N(C)c4c(C)cccc4C)n3n2)CC[C@H]1CC(=O)O` (relative stereo) [Example 2, 2-((3R*,4S*)-1-(7-((2,6-dimethylphenyl)(methyl)amino)-5-(3,4,5-trifluorophenyl)pyrazolo[1,5-a]pyrimidine-2-carbonyl)-3-methoxypiperidin-4-yl)acetic acid], the inhibition in vivo at 100 µg/mL, 1 mg/kg in test [1] came out at 69.7%. Also, the 50% inhibitory concentration (IC50) at PAR2 [2] came out at 7.54 nM. Further, the “Inhibitory activity … (%)” value at PAR2 [3] worked out at 91.3%.
The like results for `COc1cccc(C)c1N(C)c1cc(-c2cc(F)c(F)c(F)c2)nc2cc(C(=O)N3CC[C@@H](CC(=O)O)[C@@H](F)C3)nn12` (relative stereo) [Example 5, 2-((3R*,4S*)-3-fluoro-1-(7-((2-methoxy-6-methylphenyl)(methyl)amino)-5-(3,4,5-trifluorophenyl)pyrazolo[1,5-a]pyrimidine-2-carbonyl)piperidin-4-yl)acetic acid] were, in that order, 106%, 2.45 nM and 94.5%.
Turning to `COc1cccc(C)c1N(C)c1cc(-c2cc(F)c(F)c(F)c2)nc2cc(C(=O)N3CC[C@@H](CC(=O)O)[C@@H](OC)C3)nn12` (relative stereo) [Example 6, 2-((3R*,4S*)-3-methoxy-1-(7-((2-methoxy-6-methylphenyl)(methyl)amino)-5-(3,4,5-trifluorophenyl)pyrazolo[1,5-a]pyrimidine-2-carbonyl)piperidin-4-yl)acetic acid], in test [1], the inhibition in vivo at 100 µg/mL, 1 mg/kg was 79.6%. Moreover, the concentration for half-maximal inhibition (IC50) at PAR2 [2] is 2.79 nM. The “Inhibitory activity … (%)” value at PAR2 [3] stood at 97.0%.
The like results for `CN(c1c(F)cccc1Cl)c1cc(-c2cc(F)c(F)c(F)c2)nc2cc(C(=O)N3CC[C@@H](CC(=O)O)[C@@H](F)C3)nn12` (relative stereo) [Example 13, 2-((3R*,4S*)-1-(7-((2-chloro-6-fluorophenyl)(methyl)amino)-5-(3,4,5-trifluorophenyl)pyrazolo[1,5-a]pyrimidine-2-carbonyl)-3-fluoropiperidin-4-yl)acetic acid] were, in that order, 62.2%, 4 nM and 95.0%.
For `CC(C)CN(c1cc(-c2cc(F)c(F)c(F)c2)nc2cc(C(=O)N3C[C@@H]4[C@@H](CC(=O)O)[C@@H]4C3)nn12)[C@@H](C)c1ccccc1` [Example 16, 2-((1α,5α,6α)-3-(7-(isobutyl((S)-1-phenylethyl)amino)-5-(3,4,5-trifluorophenyl)pyrazolo[1,5-a]pyrimidine-2-carbonyl)-3-azabicyclo[3.1.0]hexan-6-yl)acetic acid], in that order: 74.5%, 26.3 nM and 98.2%.
